Experimental data reported in publication PMC11134387, “Cancer-Stem-Cell Phenotype-Guided Discovery of a Microbiota-Inspired Synthetic Compound Targeting NPM1 for Leukemia” (JACS Au, 2024).

What was measured:
[1] = Plasma protein binding, equilibrium dialysis (RED); format: in vitro ADME; conditions: pH 7.4, mouse serum, read-out: Plasma protein binding, bound fraction (converted)
Method: Based on the encouraging results obtained in ex vivo models of AML, we further assessed the therapeutic potential of the new NPM1 inhibitor in vivo. Prior to the evaluation of the compound in an animal model of AML, in vivo pharmacokinetic studies were addressed. Following a single intraperitoneal administration of UCM-13369 at a dose of 25 mg/kg, levels of 200–600 μg/L were detected in mouse peripheral blood up to 6 h (Figure 6A). Plasma protein binding of the compound in mouse serum was measured using an equilibrium dialysis assay, indicating a bound fraction of 83 ± 1%. Next, the efficacy of the compound was evaluated in immunodeficient mice after injection of OCI-AML3-ffLuc-GFP cells as an AML animal model. […]
coupled to a liquid nanochromatography Easy nLC 1200 System (Thermo Scientific).
Once digested, mutant NPM1 C+ C-end sample w as injected into a EASY-Spray™ C18 column, and digestion peptides were separated by using a lineal phase gradi ent (A: 0.1% formic acid in water; B: 20% acetonitrile, 0.1% formic acid in water) for 120 min. Spectra were acquired in DDA m ode, analyzing the 10 higher intensity parent ions in each cycl e.
Proteome Discoverer (Thermo Scientific) was used to align the spectra with the C-end […]
Random exclusion of AIRs was set to 2%. […] Clusters were classifi ed according to H ADDOCK score and stru ctures w er e analyzed with UCSF ChimeraX).10 […]

OCI-AML3 (NPM1 C+) = assay: Cell viability dose-response in AML cell line (NPM1 C+); format: cell-based; conditions: Homo sapiens, OCI-AML-3; OCI-AML3, 48 h
Source text: One of the most paradigmatic diseases with critical involvement of CSCs is AML. Among the AML stem cell population, CD34+/CD38- are the only ones capable of inducing leukemia in vivo.[27] […] We focused on proteins that disappeared completely after treatment with the compound and whose concentration could be quantified in untreated samples. According to this profile, 340 proteins, including targets related with stemness and cancer, were identified (see Supplementary Excel file). Among them, nucleophosmin 1 (NPM1) especially attracted our attention, as it is one of the most common mutated proteins in AML.[28] To support that the inhibitory capacity of UCM-13369 observed in CSC cells (see Table S1) is mediated by NPM1, the compound was tested on OCI-AML3 and MOLM13 cell lines, as in vitro AML models bearing mutant (NPM1 C+) and wild-type (WT) protein, respectively.
The test compound was diluted in PBS.

MCF-7 = assay: Cytotoxic effect in breast tumor cell line (MTT); conditions: Homo sapiens, MCF7, read-out: Viability (%) MCF-7, @5 µM (footnote d)
Method: The cytotoxic effect was determined in breast (MCF-7) and colon (HCT-116) tumor cell lines using MTT assays.
Cells were seeded at 3 × 10^4 cells/mL in 96-well plates. The test compound was diluted in PBS. […] Viability was evaluated by MTT or WST-1 and dose/response curves were performed.

## COc1ccc(C2Cc3[nH]c4ccccc4c3C(CCNCC3CC3)C2N)cc1 (stereo not drawn) [4b, 4-{2-[(Cyclopropylmethyl)amino]ethyl}-2-(4-methoxyphenyl)-2,3,4,9-tetrahydro-1H-carbazol-3-amine]
[1]
  fraction unbound at 6 h: 0.17
OCI-AML3 (NPM1 C+)
  IC50: 7.26 µM
MCF-7
  viability at 5 µM: 96%
